Results on four molecules are retold here after US12458638B2, “Method of stimulating neutrophil survival and reducing neutropenia” (BEYONDSPRING PHARMACEUTICALS, INC., priority 2017, dated 2025).

Read-outs that look alike come from different tables or passages of the source.

Data set [1] in a line: Safety / product profile of plinabulin vs G-CSF in patients (bone pain, hospitalization, hypertension, laboratory parameters). It is filed as in vivo, human.
For data set [2], the system named is docetaxel-induced neutropenia. The data set can be described thus: Randomized double blind study, plinabulin vs pegfilgrastim in solid tumor patients receiving docetaxel (Example 4). It counts as in vivo, human. Conditions: for neutrophil count through time (FIG. 1): after docetaxel 75 mg/m^2. The method, then: A randomized, double blind study to evaluate duration of severe neutropenia with plinabulin versus pegfilgrastim in patients with solid tumors receiving docetaxel myelosuppressive chemotherapy was performed. Patients were randomly assigned to the following arms (with the respective sample sizes): Arm 1: Docetaxel (75 mg/m^2)+Pegfilgrastim (6 mg) (n=14); Arm 2: Docetaxel (75 mg/m^2)+Plinabulin (20 mg/m^2) (n=14); Arm 3: Docetaxel (75 mg/m^2)+Plinabulin (10 mg/m^2) (n=14); and Arm 4: Docetaxel (75 mg/m^2)+Plinabulin (5 mg/m^2) (n=13).

Data set [3] concerns docetaxel-induced neutropenia. The data set can be described thus: Grade 4 neutropenia in patients on docetaxel with or without plinabulin. It counts as in vivo, human. As to conditions: for proportion of patients with Grade 4 neutropenia: Cycle 1, Day 8, ANC<0.5×10^9/L, docetaxel alone vs plinabulin added to docetaxel, p<0.0003.
Data set [4] concerns neutropenia caused by chemotherapies. The data set can be described thus: Animal model studies of chemotherapy-caused neutropenia. It counts as in vivo. Conditions: animal models; docetaxel, cisplatin, adriamycin, cyclosphosphamide, topotecan, gemcitabine. The text has this:
Clinical complications of neutropenia (febrile neutropenia, infections, sepsis, and mortality) occur with Grade 4 Neutropenia, as compared to with Grade 2 or 3 Neutropenia. For regulatory approval, the FDA and Health Authorities focus on Grade 4 Neutropenia data.

Data set [5] has as its system NSCLC patients with a measurable lesion. As to conditions: human, in vivo.
For the next data set, the target named is CYP3A4 (Homo sapiens, UniProt P08684). As to conditions: with the use of strong CYP3A4 inhibitors; cited from earlier work.
Sequence of CYP3A4 (P08684 whole entry): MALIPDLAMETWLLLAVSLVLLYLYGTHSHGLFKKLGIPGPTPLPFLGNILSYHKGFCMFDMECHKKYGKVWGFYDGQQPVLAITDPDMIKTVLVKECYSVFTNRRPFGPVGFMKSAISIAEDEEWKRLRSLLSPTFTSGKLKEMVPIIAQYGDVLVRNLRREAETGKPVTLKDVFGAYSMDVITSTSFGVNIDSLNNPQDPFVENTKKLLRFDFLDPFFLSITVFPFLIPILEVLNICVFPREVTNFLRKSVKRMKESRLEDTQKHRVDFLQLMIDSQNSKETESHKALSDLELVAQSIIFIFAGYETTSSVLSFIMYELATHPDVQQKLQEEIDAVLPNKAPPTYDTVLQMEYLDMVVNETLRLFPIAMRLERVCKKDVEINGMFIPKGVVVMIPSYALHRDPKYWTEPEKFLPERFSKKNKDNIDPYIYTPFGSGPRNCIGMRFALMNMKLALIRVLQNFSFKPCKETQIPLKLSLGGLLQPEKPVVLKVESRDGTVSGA
Data set [6] concerns chemotherapy-induced febrile/severe neutropenia. The data set can be described thus: Reported FN frequency and DSN with docetaxel or TAC chemotherapy, with or without G-CSF. It counts as in vivo, human. Conditions: docetaxel monotherapy 75 mg/m^2 without G-CSF. On the procedure:
The frequency of FN with docetaxel monotherapy (100 mg/m^2)+G-CSF is reported to be 1% in Cycle 1. […] 2002; 20:727-731.
The FN percentage is about 12.7% with 75 mg/m^2 docetaxel. Based on this range of FN and the relationship established between FN and DSN, the assumption is that, with docetaxel monotherapy at a dose of 75 mg/m^2 without G-CSF, the median DSN is estimated to be 4-5 days.
The margin can be selected based on the data that Taxotere/Adriamycin/cyclophosphamide (TAC) chemotherapy can induce a median DSN of 7 days in breast cancer patients receiving no G-CSF treatment, while G-CSF treatment reduces the mean DSN for this chemotherapy to 1.4 days (95% CI: 1.07-1.69) as shown in pegfilgrastim Study. Based on this a non-inferiority limit of 1 day is derived.

Data set [7] shares this test system. Conditions: cited from earlier work.
In data set [8] the test system is docetaxel-induced severe neutropenia. The data set can be described thus: Calculated DSN from Day 8 neutrophil nadir values (simulation, Deming regression). It counts as in vivo, human. Conditions: from observed Day 8 neutrophil (nadir) values, Cycle 1.
Text: DSN is obtained using the following methods (described below) for generation of ANC data and the observed neutrophil values on Day 8/Cycle 1 in the Phase 2 study. […] The study may assume that the shape of the time/neutrophil recovery curve in plinabulin-treated patients is indistinguishable from the time/neutrophil recovery curve for filgrastim and its biosimilars.
Mean values and standard deviations of ANC during the 21-day follow-up period can be obtained from the reference. […] The simulation would then also generate the projected number of days with severe neutropenia, (i.e., the DSN).
For data set [9] the following is noted: most common adverse reactions; cited from earlier work.
The conditions of data set [10]: G-CSF, Table 1; cited from earlier work.
The mark [11] stands for this setting: Plinabulin 5 mg/m2 + docetaxel 75 mg/m^2.
Where [12] appears, read: Plinabulin 10 mg/m2 + docetaxel 75 mg/m^2.
The mark [13] stands for this setting: Plinabulin 20 mg/m2 + docetaxel 75 mg/m^2.
The mark [14] stands for this setting: Neulasta 6 mg + docetaxel 75 mg/m^2.

For `CC(C)(C)c1[nH]cnc1/C=c1\[nH]c(=O)/c(=C/c2ccccc2)[nH]c1=O` [Plinabulin, (3Z,6Z)-3-Benzylidene-6-{[5-(2-methyl-2-propanyl)-1H-imidazol-4-yl]methylene}-2,5-piperazinedione], the results for the “Grade 3 transient hypertension, patients” value in data set [1] (20 mg/m^2 plinabulin) and in data set [1] (30 mg/m^2 plinabulin) were 5% and 20%, respectively. Further, the “Bone Pain (% of patients)” value in data set [1] (Plinabulin, Table 1) was less than 4%. Also, the “Hospitalization (% of patients)” value in data set [1] (Plinabulin, Table 1) was found to be 6%. In addition, in data set [1] (patients receiving plinabulin), the “Bone pain, patients reporting” value was 4%. In data set [1] (plinabulin monotherapy, solid tumor patients, no chemotherapy), the “changes in hematology or chemistry laboratory parameters” value is given as “did not experience any clinically significant deleterious changes”. In addition, the “DSN” value in data set [2] (setting [11]) was found to be 0.46 days; in data set [2] (setting [12]), 0.43 days; in data set [2] (setting [13]), 0.38 days. The “Grade 4 Incidence (%)” value is recorded as 23% in [2] (setting [11]), 21% in data set [2] (setting [12]) and 15% in [2] (setting [13]). The “neutrophil count through time (FIG. 1)” value in data set [2] is reported as “started to rise again on day 10”. In [2] (human, in vivo), the “treatment of neutropenia induced by chemotherapeutic agent” value is reported as “effective in treating neutropenia”. The “proportion of patients with Grade 4 neutropenia” value in data set [3] is recorded as 4.6%. Also, in data set [3] (human, in vivo), the “clinical sequelae associated with docetaxel-induced neutropenia (sepsis, infections, hospitalizations, docetaxel dose reductions, G-CSF use)” value is “reduced”. The “prevention of neutropenia caused by chemotherapies” value in [4] is recorded as “prevent neutropenia”. In addition, in data set [5], the “Immune-Related AEs (IR-AEs)” value was “without increasing Immune-Related AEs”.
As to `CC(=O)O[C@@]12CO[C@@H]1C[C@H](O)[C@@]1(C)C(=O)[C@H](O)C3=C(C)[C@@H](OC(=O)[C@H](O)[C@@H](NC(=O)OC(C)(C)C)c4ccccc4)C[C@@](O)([C@@H](OC(=O)c4ccccc4)[C@H]21)C3(C)C` [docetaxel], the “increase of docetaxel exposure” value at CYP3A4 is “approximately 2 fold”. Moreover, in [6], the “estimated median DSN” value was 4 to 5 days. Moreover, in data set [7] (75 mg/m^2 docetaxel), the FN percentage result is reported as “about 12.7%”. For the same molecule, the “frequency of FN” value in [7] (Cycle 1, docetaxel 100 mg/m^2 without G-CSF) is recorded as 11%; in data set [7] (over all cycles, docetaxel 60 mg/m^2 without G-CSF), 19.8%; in data set [7] (over all cycles, docetaxel 100 mg/m^2 without G-CSF), 17%. Further, the “proportion of patients with Grade 4 neutropenia” value in data set [3] came to 33.3%. Besides, in data set [8], the “calculated mean DSN” value is recorded as 1.076 days.

B1: Neulasta: pegfilgrastim (Neulasta®), a granulocyte colony-stimulating factor (G-CSF) compound (protein, chains of the INN, looked up)
chain: TPLGPASSLPQSFLLKCLEQVRKIQGDGAALQEKLCATYKLCHPEELVLLGHSLGIPWAPLSSCPSQALQLAGCLSQLHSGLFLYQGLLQALEGISPELGPTLDTLQLDVADFATTIWQQMEELGMAPALQPTQGAMPAFASAFQRRAGGVLVASHLQSFLEVSYRVLRHLAQP
On to B1, for which, in data set [9], the “bone pain, patients” value is on record as 31% and the “pain in an extremity, patients” value was 9%. For the same molecule, in data set [2] (setting [14]), the “DSN” value is 0.14 days and the “Grade 4 Incidence (%)” value is reported as 14%. Further, the “neutrophil count through time (FIG. 1)” value in [2] was “had an initial increase and then began to drop after 10 days”.

B2: G-CSF: Granulocyte-colony stimulating factor; G-CSF compounds include filgrastim and pegfilgrastim (protein, UniProt P09919 31-207, looked up)
Granulocyte …: TPLGPASSLPQSFLLKCLEQVRKIQGDGAALQEKLVSECATYKLCHPEELVLLGHSLGIPWAPLSSCPSQALQLAGCLSQLHSGLFLYQGLLQALEGISPELGPTLDTLQLDVADFATTIWQQMEELGMAPALQPTQGAMPAFASAFQRRAGGVLVASHLQSFLEVSYRVLRHLAQP
Take B2: the “mean DSN” value in data set [7] (G-CSF treatment with TAC chemotherapy, 95% CI: 1.07-1.69) is recorded as 1.4 days. Further, in data set [10], the “Bone Pain (% of patients)” value was more than 20% and the “Hospitalization (% of patients)” value was 20%.
